In PubChem BioAssay (NCI) one finds TGI data, which are given here for 10 compounds.

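Where inhibition never reached the appropriate level, the endpoint shown equals the highest concentration tested. Otherwise, values were interpolated linearly from a five-concentration, 48-hour dose response in 96-well plates. TGI marks complete inhibition of growth.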

Some test systems named below: NCI-H23 lung; A549 NSCLC; HCT-116 colon; SN12C renal; SF-268 CNS; U251 CNS; NCI-H226 lung; HCT-15 colon; OVCAR-8 ovarian; UACC-257 melanoma; UACC-62 melanoma; SF-295 CNS; CAKI-1 renal; HOP-92 NSCLC; RPMI-8226 leukemia.
Holding throughout (assay): NCI-60 cell line screen, 48 h

`C/C(O)=C(\C=N\C(=S)N=Nc1c(O)[nH]c2ccccc12)C(=O)Nc1ccccc1C`: the TGI in the assay with NCI-H23 lung, in the assay on A549 NSCLC, with HCT-116 colon, in the assay with SN12C renal, in the assay with SF-268 CNS and in the assay with U251 CNS was above 100 µM in each case. In addition, the TGI in the assay on NCI-H226 lung, in the assay with HCT-15 colon, in the assay with OVCAR-8 ovarian, in the assay with UACC-257 melanoma, in the assay on UACC-62 melanoma and with SF-295 CNS was above 100 µM throughout. Also, the TGI in the assay on CAKI-1 renal and in the assay with HOP-92 NSCLC was above 100 µM in each case.

On to `CCCCN=NNc1cn(C2OC(CO)C(O)C2O)c(=O)[nH]c1=O` (stereo not given), for which the TGI in the assay with NCI-H23 lung, with A549 NSCLC, with HCT-116 colon, with SN12C renal, with SF-268 CNS and in the assay on NCI-H226 lung was above 100 µM each time. Besides, the TGI with HCT-15 colon, in the assay on OVCAR-8 ovarian, in the assay on UACC-257 melanoma, in the assay on UACC-62 melanoma, in the assay with SF-295 CNS and in the assay on CAKI-1 renal was above 100 µM each time.

With `COC(=O)c1cc(CC2Cc3cc4c(cc3C2=O)CCC4)cc2c1CCC2` (stereo not given), the TGI with NCI-H23 lung, in the assay with A549 NSCLC, in the assay on HCT-116 colon, in the assay on SN12C renal, in the assay on SF-268 CNS and in the assay on U251 CNS was above 100 µM in each case. The TGI with RPMI-8226 leukemia, in the assay with NCI-H226 lung, in the assay with HCT-15 colon, in the assay with OVCAR-8 ovarian, with UACC-257 melanoma and with UACC-62 melanoma was above 100 µM each time. Besides, the TGI in the assay on SF-295 CNS and in the assay with CAKI-1 renal was above 100 µM throughout.

`CSc1c(C#N)c(=O)n(N)c2c1c(C)nn2-c1ccccc1`: the TGI was 52.7 µM in the assay with NCI-H23 lung; 61.6 µM in the assay on A549 NSCLC; 56.2 µM in the assay on HCT-116 colon; above 100 µM in the assay with SN12C renal; above 100 µM with SF-268 CNS; above 100 µM with U251 CNS. For the same compound, the TGI with RPMI-8226 leukemia was determined as 63.9 µM; in the assay with NCI-H226 lung, 70 µM; with HCT-15 colon, 85.4 µM; in the assay with OVCAR-8 ovarian it was 54 µM; with UACC-257 melanoma it was 60.9 µM; in the assay with UACC-62 melanoma, 75.8 µM. Further, the TGI in the assay with CAKI-1 renal stood at 43 µM.

With `CC1(C)OCC(CO)(CO)CO1`, the TGI in the assay on NCI-H23 lung, in the assay on A549 NSCLC, with HCT-116 colon, with SN12C renal, with SF-268 CNS and with U251 CNS was above 100 µM throughout. In addition, the TGI with NCI-H226 lung, in the assay with HCT-15 colon, with OVCAR-8 ovarian, in the assay on UACC-257 melanoma, in the assay with SF-295 CNS and with HOP-92 NSCLC was above 100 µM each time.

As to `O=Cc1cn(CCCCCCCCn2cc(C=O)c3ccccc32)c2ccccc12`, the TGI with NCI-H23 lung, with A549 NSCLC, in the assay with HCT-116 colon, in the assay with SN12C renal, in the assay on SF-268 CNS and with U251 CNS was above 10 µM throughout. In addition, the TGI in the assay with RPMI-8226 leukemia, with NCI-H226 lung, in the assay on HCT-15 colon, in the assay with OVCAR-8 ovarian, in the assay on UACC-62 melanoma and in the assay on SF-295 CNS was above 10 µM each time. For the same compound, the TGI in the assay on CAKI-1 renal was above 10 µM.

Consider `Cc1ccc(Nc2cccc3c2C(=O)c2cccc(Nc4ccc(C)cc4S(=O)(=O)O)c2C3=O)c(S(=O)(=O)O)c1`, for which the TGI in the assay with A549 NSCLC, in the assay with HCT-116 colon, with SN12C renal, with SF-268 CNS, in the assay with U251 CNS and in the assay with RPMI-8226 leukemia was above 100 µM in each case. Besides, the TGI in the assay on NCI-H226 lung, in the assay with HCT-15 colon, in the assay on OVCAR-8 ovarian, with UACC-257 melanoma, in the assay with UACC-62 melanoma and in the assay on CAKI-1 renal was above 100 µM each time.

On to `Clc1cccc(-c2nc3cccc4c3n2Cc2ncccc2-4)c1`, for which the TGI in the assay on NCI-H23 lung, with A549 NSCLC, in the assay on HCT-116 colon, with SN12C renal, in the assay with SF-268 CNS and in the assay on U251 CNS was above 100 µM in each case. Moreover, the TGI in the assay on NCI-H226 lung, in the assay with HCT-15 colon, in the assay with OVCAR-8 ovarian, with UACC-257 melanoma, in the assay on UACC-62 melanoma and with SF-295 CNS was above 100 µM in each case. Also, the TGI in the assay with CAKI-1 renal and with HOP-92 NSCLC was above 100 µM throughout.

On to `CNC(=O)C(C)Oc1ccc(OCC2CCCCC2)cc1` (stereo not given), for which the TGI with NCI-H23 lung, with A549 NSCLC, with HCT-116 colon, in the assay on SN12C renal, in the assay on SF-268 CNS and in the assay on U251 CNS was above 100 µM each time. Moreover, the TGI in the assay with NCI-H226 lung, with HCT-15 colon, in the assay on OVCAR-8 ovarian, in the assay on UACC-257 melanoma, in the assay on UACC-62 melanoma and with SF-295 CNS was above 100 µM throughout.

`CCCCCCCCOC(=O)C12Oc3ccc(-c4ccc5c(c4O)C(O)=C4C(=O)CC(C)C(O)C4(C(=O)OCCCCCCCC)O5)c(O)c3C(O)=C1C(=O)CC(C)C2O` (stereo not given): the TGI with NCI-H23 lung is 31.5 µM; in the assay on A549 NSCLC, above 100 µM; in the assay on HCT-116 colon it was above 100 µM; in the assay with SN12C renal, above 100 µM; in the assay with SF-268 CNS it was above 100 µM; with U251 CNS, 27.5 µM. In addition, the TGI was above 100 µM in the assay with NCI-H226 lung; above 100 µM in the assay on HCT-15 colon; 35 µM in the assay on OVCAR-8 ovarian; above 100 µM with UACC-257 melanoma; 99.3 µM with UACC-62 melanoma; 48 µM with SF-295 CNS. Also, the TGI came out at 64.3 µM in the assay on CAKI-1 renal and 42.5 µM in the assay with HOP-92 NSCLC.
